Assay results as given in patent publication US5668159A, “1,3,4-thiadiazoles and 1,3,4-oxadiazoles as IIb/IIIa antagonists” (The DuPont Merck Pharmaceutical Company, priority 1996, dated 1997).
Structures can show the parent of a compound that is named as a salt.

Each compound was assayed on platelet aggregation (platelet rich plasma (PRP)) (assay: Platelet Aggregation Assay (inhibition of agonist-induced platelet aggregation in platelet rich plasma)). Conditions: with esterase, ester prodrugs preincubated with 100 IU/mL porcine liver esterase 2 hours at 37° C., human PRP, 100 μM ADP, read-out: Platelet Aggregation Assay IC50 (with esterase).
Assay type: cell-based
Method: Platelet Aggregation Assay: Venous blood was obtained from the arm of a healthy human donor who was drug-free and aspirin-free for at least two weeks prior to blood collection. Blood was collected into 10 mL citrated Vacutainer tubes. The blood was centrifuged for 15 minutes at 150× g at room temperature, and platelet-rich plasma (PRP) was removed. The remaining blood was centrifuged for 15 minutes at 1500× g at room temperature, and platelet-poor plasma (PPP) was removed. Samples were assayed on a aggregometer (PAP-4 Platelet Aggregation Profiler), using PPP as the blank (100% transmittance). 200 μL of PRP was added to each micro test tube, and transmittance was set to 0%. 20 μL of various agonists (ADP, collagen, arachidonate, epinephrine, thrombin) were added to each tube, and the aggregation profiles were plotted (% transmittance versus time). The results are expressed as % inhibition of agonist-inducedplatelet aggregation. For the IC50 evaluation, the test compounds were added at various concentrations prior to the activation of the platelets.
Ester prodrugs were preincubated (10^-3 M F.C.) with 100 IU/mL Porcine liver esterase (Sigma Chemical Co., St. Louis, Mo., #E-3128) for 2 hours at 37° C. Aliquots are then diluted in 0.1M Tris, p H 7.4, to the desired concentrations. Aliquots of 20 μl of the esterase pretreated prodrugs are added to 200 μl of human platelet rich plasma. Samples were placed in platelet profiler (aggregometer) for 8 minutes at 37° C., followed by the addition of 100 μM Adenosine Diphosphate, (Sigma Chemical Co., St. Louis, Mo., #A-6521), to induce platelet aggregation. Platelet aggregation was allowed to proceed for 5 minutes. Percent inhibition is calculated using percent aggregation in the presence of the test compound divided by percent aggregation of control, times 100. This value is subtracted from 100, yielding percent inhibition. Calculation of IC50 is performed on a Texas Instruments TI59 with an IC50 program.
Table A below sets forth the antiplatelet activity of representative compounds of the present invention. The indicated compounds were tested for their ability to inhibit platelet aggregation (using platelet rich plasma (PRP)). The IC50 value (the concentration of antagonist which inhibits platelet aggregation by 50% relative to a control lacking the antagonist) is shown. In Table A the IC50 values are expressed as: +++=IC50 of <10 μM; ++=IC50 of […]; +=IC50 of 50-100 μM (μM=micromolar).

| Compound | IC50 [µM] |
| --- | --- |
| CCCCOC(=O)N[C@@H](CNC(=O)Cc1nnc(-c2ccc(C(=N)N)cc2)s1)C(=O)OC [Example 1, Methyl N^3-[2-{2-(4-amidinophenyl)-1,3,4-thiadiazol-5-yl}-acetyl]-N^2-(n-butyloxycarbonyl)-2,3-(S)-diaminopropionate TFA salt] | < 10 |
| CCOC(=O)[C@H](Cc1ccccc1)NC(=O)CSc1nnc(-c2ccc(C(=N)N)cc2)o1 [Example 399, Ethyl N-[2-{2-(4-amidinophenyl)-1,3,4-oxadiazol-5-ylthio}-acetyl]-(S)-phenylalanine HCl salt] | 10 to 50 |
| CCCCOC(=O)N[C@@H](CNC(=O)CSc1nnc(-c2ccc(C(=N)N)cc2)o1)C(=O)OC [Example 258, Methyl N^3-[2-{2-(4-amidinophenyl)-1,3,4-oxadiazol-5-ylthio}-acetyl]-N^2-(n-butyloxycarbonyl)-2,3-(S)-diamino propionate HCl salt] | < 10 |
| COC(=O)[C@H](CNC(=O)Cc1nnc(-c2ccc(C(=N)N)cc2)s1)NS(=O)(=O)c1c(C)noc1C [Example 96, Methyl N^3-[2-{2-(4-amidinophenyl)-1,3,4-thiadiazol-5-yl}-acetyl]-N^2-(3,5-dimethylisoxazol-4-ylsulfonyl)-2,3-(S)-diaminopropionate TFA salt] | < 10 |
| CNC(=N)c1ccc(-c2nnc(CC(=O)NC[C@H](NS(=O)(=O)c3cccc(C)c3)C(=O)OC)s2)cc1 [Example 44, Methyl N^3-[2-{2-(4-N-methylamidinophenyl)-1,3,4-thiadiazol-5-yl}-acetyl]-N^2-(3-methylphenylsulfonyl)-2,3-(S)-diaminopropionate TFA salt] | < 10 |
| CCCCOC(=O)N[C@@H](CNC(=O)Cc1nnc(-c2ccc(NC(=N)N)cc2)o1)C(=O)OC [Example 335, Methyl N^3-[2-{2-(4-guanidinophenyl)-1,3,4-oxadiazol-5-yl}-acetyl]-N2-(n-butyloxycarbonyl)-2,3-(S)-diaminopropionate TFA salt] | < 10 |
| CCCCOC(=O)N[C@@H](CNC(=O)CSc1nnc(-c2ccc(C(=N)N)cc2)s1)C(=O)OC [Example 192, Methyl N^3-[2-{2-(4-amidinophenyl)-1,3,4-thiadiazol-5-ylthio}acetyl]-N^2-(n-butoxycarbonyl)-2,3-(S)-diaminopropionate HCl salt] | < 10 |
| CCCCOC(=O)N[C@@H](CNC(=O)CSc1nnc(-c2ccc(NC(=N)N)cc2)o1)C(=O)OC [Example 242, Methyl N^3-[2-{2-(4-guanidinophenyl)-1,3,4-oxadiazol-5-ylthio}acetyl]-N^2-(n-butoxycarbonyl)-2,3-(S)-diaminopropionate TFA salt] | 10 to 50 |
| CCCCOC(=O)NC[C@H](NC(=O)CSc1nnc(-c2ccc(C(=N)N)cc2)s1)C(=O)OC [Example 440, Methyl N^2-[2-{2-(4-amidinophenyl)-1,3,4-thiodiazol-5-ylthio}-acetyl]-N^3-(n-butyloxycarbonyl)-2,3-(S)-diaminopropionate HCl salt] | < 10 |
| COC(=O)[C@H](CNC(=O)CCCc1nnc(C2CCNCC2)s1)NS(=O)(=O)c1cccc(C)c1 [Example 133, Methyl N^3-[4-{2-(4-piperidinyl)-1,3,4-thiadiazol-5-yl}-butyryl]-N^2-(3-methylphenylsulfonyl)-2,3-(S)-diaminopropionate TFA salt] | < 10 |
| COC(=O)[C@H](CNC(=O)Cc1nnc(-c2ccc(C(=N)N)cc2)s1)NS(=O)(=O)c1cccc(C)c1 [Example 25, Methyl N^3-[2-{2-(4-amidinophenyl)-1,3,4-thiadiazol-5-yl}-acetyl]-N^2-(3-methylphenylsulfonyl)-2,3-(S)-diaminopropionate TFA salt] | < 10 |
| COC(=O)[C@H](Cc1ccccc1)NC(=O)CSc1nnc(-c2ccc(NC(=N)N)cc2)o1 [Example 392, Methyl N-[2-{2-(4-guanidinophenyl)-1,3,4-oxadiazol-5-ylthio}-acetyl]-(S)-phenylalanine TFA salt] | 10 to 50 |
| CCCCOC(=O)N[C@@H](CNC(=O)Cc1nnc(-c2ccc(C(=N)N)cc2)o1)C(=O)OC [Example 318, Methyl N^3-[2-{2-(4-amidinophenyl)-1,3,4-oxadiazol-5-yl}-acetyl]-N-^2-(n-butyloxycarbonyl)-2,3-(S)-diaminopropionate TFA salt] | 50 to 100 |
| CCCCNC(=N)c1ccc(-c2nnc(CC(=O)NC[C@H](NS(=O)(=O)c3cccc(C)c3)C(=O)OC)s2)cc1 [Example 64, Methyl N^3-[2-{2-(4-N-n-butylamidinophenyl)-1,3,4-thiadiazol-5-yl}-acetyl]-N^2-(3-methylphenylsulfonyl)-2,3-(S)-diaminopropionate TFA salt] | < 10 |
| COC(=O)[C@H](CNC(=O)Cc1nnc(-c2ccc(NC(=N)N)cc2)s1)NS(=O)(=O)c1cccc(C)c1 [Example 145, Methyl N^3-[2-{2-(4-guanidinophenyl)-1,3,4-thiadiazol-5-yl}-acetyl]-N^2-(3-methylphenylsulfonyl)-2,3-(S)-diaminopropionate TFA salt] | < 10 |
| COC(=O)[C@H](CNC(=O)Cc1nnc(-c2ccc(C(=N)N)cc2)s1)NS(=O)(=O)c1ccccc1C [Example 88, Methyl N^3-[2-{2-(4-amidinophenyl)-1,3,4-thiadiazol-5-yl}-acetyl]-N -(2-methylphenylsulfonyl)-2,3-(S)-diaminopropionate TFA salt] | < 10 |

Same assay, conditions: without esterase, human PRP, read-out: Platelet Aggregation Assay IC50 (without esterase)

| Compound | IC50 [µM] |
| --- | --- |
| Cc1noc(C)c1S(=O)(=O)N[C@@H](CNC(=O)Cc1nnc(-c2ccc(C(=N)N)cc2)s1)C(=O)O [Example 97, N^3-[2-{2-(4-amidinophenyl)-1,3,4-thiadiazol-5-yl}-acetyl]-N^2-(3,5-dimethylisoxazol-4-ylsulfonyl)-2,3-(S)-diaminopropionic acid HCl salt] | < 10 |
| CCCCOC(=O)N[C@@H](CNC(=O)Cc1nnc(-c2ccc(C(=N)N)cc2)s1)C(=O)O [Example 2, N^3-[2-{2-(4-amidinophenyl)-1,3,4-thiadiazol-5-yl}-acetyl]-N^2-(n-butyloxycarbonyl)-2,3-(S)-diaminopropionic acid HCl salt] | < 10 |
| Cc1cccc(S(=O)(=O)N[C@@H](CNC(=O)Cc2nnc(-c3ccc(C(=N)N)cc3)s2)C(=O)O)c1 [Example 26, N^3-[2-{2-(4-amidinophenyl)-1,3,4-thiadiazol-5-yl}-acetyl]-N^2-(3-methylphenylsulfonyl)-2,3-(S)-diaminopropionic acid HCl salt] | < 10 |
| Cc1cccc(S(=O)(=O)N[C@@H](CNC(=O)Cc2nnc(-c3ccc(C(N)=O)cc3)s2)C(=O)O)c1 [Example 171, N^3-[2-{2-(4-Amidophenyl)-1,3,4-thiadiazol-5-yl}-acetyl]-N^2-(3-methylphenylsulfonyl)-2,3-(S)-diaminopropionic acid] | < 10 |
| CCCCNC(=N)c1ccc(-c2nnc(CC(=O)NC[C@H](NS(=O)(=O)c3cccc(C)c3)C(=O)O)s2)cc1 [Example 65, N^3-[2-{2-(4-N-n-butylamidinophenyl)-1,3,4-thiadiazol-5-yl}-acetyl]-N^2-(3-methylphenylsulfonyl)-2,3-(S)-diaminopropionic acid HCl salt] | < 10 |
| Cc1cccc(S(=O)(=O)N[C@@H](CNC(=O)Cc2nnc(-c3ccc(NC(=N)N)cc3)s2)C(=O)O)c1 [Example 146, N^3-[2-{2-(4-guanidinophenyl)-1,3,4-thiadiazol-5-yl}-acetyl]-N^2-(3-methylphenylsulfonyl)-2,3-(S)-diaminopropionic acid TFA salt] | < 10 |
| Cc1ccccc1S(=O)(=O)N[C@@H](CNC(=O)Cc1nnc(-c2ccc(C(=N)N)cc2)s1)C(=O)O [Example 89, N^3-[2-{2-(4-amidinophenyl)-1,3,4-thiadiazol-5-yl}-acetyl]-N^2-(2-methylphenylsulfonyl)-2,3-(S)-diaminopropionate acid HCl salt] | < 10 |
| CNC(=N)c1ccc(-c2nnc(CC(=O)NC[C@H](NS(=O)(=O)c3cccc(C)c3)C(=O)O)s2)cc1 [Example 63, N^3-[2-{2-(4-N-methylamidinophenyl)-1,3,4-thiadiazol-5-yl}-acetyl]-N^2-(3-methylphenylsulfonyl)-2,3-(S)-diaminopropionic acid HCl salt] | < 10 |
| Cc1cccc(S(=O)(=O)N[C@@H](CNC(=O)CCCc2nnc(C3CCNCC3)s2)C(=O)O)c1 [Example 134, N^3-[4-{2-(4-piperidinyl)-1,3,4-thiadiazol-5-yl}-butyryl]-N^2-(3-methylphenylsulfonyl)-2,3-(S)-diaminopropionic acid TFA salt] | < 10 |
